Source: patent publication US12257290B2, “PIC1 inhibition of myeloperoxidase oxidative activity in an animal model” (priority 2018, dated 2025)
Ends that are not written are not given here.

How the values were obtained:
Format in all cases: biochemical
[1] = system: complement activation in normal human serum (NHS); test: Heat-aggregated IgG immune complex-initiated complement activation in normal human serum (C5a, iC3b, SC5b-9 ELISA)
Method: (§1) Immune complex activation of NHS was performed as follows. NHS was stimulated with three different types of immune complexes (IC) to induce complement activation. Heat-aggregated IgG was generated by incubating intravenous immune globulin at 50 mg/ml at 63° C. for 30 min [26]. Ovalbumin-antiovalbumin immune complexes were made by incubating 0.01 ml anti-ovalbumin antibody with an equal volume of ovalbumin, at 0.25 mg/nil, at 37° C. for 30 minutes and then storing at 4° C. overnight. C1 immune complexes were formed by incubating 0.02 ml anti-C1q goat sera with 5 μl of C1, at 200 μg/ml, at 30° C. for 30 minutes and then placing in an ice water bath. For C5a and C5b-9 assays, activation of NHS was performed by pre-incubating 5% NHS with titrating concentrations of PA-dPEG24 in 0.3 ml of GVBS^++ buffer for 30 minutes at room temperature. Then […] of either heat-aggregated IVIg, or ovalbumin IC, or 5 μI of C1-antiC1q IC was added to the mix for 30 min. at 37° C. This reaction was stopped with the addition of an equal volume of GVBS^−−. For iC3b detection, 1% NHS was used and the rest of the protocol remained the same.
ELISA was performed as follows. Samples were assayed using C5a, iC3b, and SC5b-9 ELISAs. […] Colorimetric detection was performed with TMB, stopped with H2SO4 and read on a BioTek Synergy HT plate reader at 450 nm. […]

MPO = biological target: T1, MPO (Homo sapiens, UniProt P05164); test: MPO-mediated oxidation of TMB (FIG. 16); details: FIG. 16, dose-response, increasing MPO concentrations
T1 sequence (P05164 49-745): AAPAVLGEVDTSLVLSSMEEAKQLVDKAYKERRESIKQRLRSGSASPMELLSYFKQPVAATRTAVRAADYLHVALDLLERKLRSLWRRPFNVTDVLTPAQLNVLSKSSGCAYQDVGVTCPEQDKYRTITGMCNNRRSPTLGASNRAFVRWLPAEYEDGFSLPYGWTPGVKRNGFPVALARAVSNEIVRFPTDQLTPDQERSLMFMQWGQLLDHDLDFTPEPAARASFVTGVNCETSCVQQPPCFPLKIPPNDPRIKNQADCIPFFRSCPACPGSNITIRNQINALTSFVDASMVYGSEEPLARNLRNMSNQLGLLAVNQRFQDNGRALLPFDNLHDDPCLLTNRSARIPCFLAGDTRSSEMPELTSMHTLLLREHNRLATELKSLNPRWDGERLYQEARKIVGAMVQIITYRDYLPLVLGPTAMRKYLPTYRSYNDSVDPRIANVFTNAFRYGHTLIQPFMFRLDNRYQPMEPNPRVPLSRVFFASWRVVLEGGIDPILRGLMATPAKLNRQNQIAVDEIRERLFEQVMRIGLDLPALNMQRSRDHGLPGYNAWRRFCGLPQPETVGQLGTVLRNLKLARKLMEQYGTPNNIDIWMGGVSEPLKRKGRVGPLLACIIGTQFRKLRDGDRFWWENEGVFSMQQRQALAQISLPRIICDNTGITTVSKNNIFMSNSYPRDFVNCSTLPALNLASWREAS
Text: FIG. 16 is a graph showing PIC1 dose-response inhibition of MPO-mediated oxidation of TMB for increasing concentrations of MPO.
PA-dPEG24 can inhibit the peroxidase effect of MPO in clinical CF sputum samples ex vivo as well as for purified MPO in vitro. […] PA-dPEG24 can inhibit NET formation in vitro, such as NET formation stimulated by any of phorbol 12-myristate 13-acetate (PMA), purified MPO, and immune complex-activated human sera.

[2] = system: complement activation in normal human serum (NHS); test: C1-antiC1q immune complex-initiated complement activation in normal human serum (C5a, iC3b, SC5b-9 ELISA)
Method: as §1
ELISA was performed as follows. Samples were assayed using C5a, iC3b, and SC5b-9 ELISAs. A C5a ELISA kit (R&D Systems) was used per the manufacturer's instructions. ELISAs for iC3b and SC5b-9 were performed as previously described. In iC3b ELISA, a goat anti-human C3 antibody (Complement Technology, Tyler TX) was used in for capture, a mouse anti-human iC3b antibody (Quidel, San Diego CA) for probing, and a goat anti-mouse HRP antibody for detection. In SC5b-9 ELISA, a rabbit anti-human SC5b-9 antibody (Complement Technology) was used for capture, a mouse anti-human SC5b-9 monoclonal antibody (Quidel) for probing, and a chicken anti-mouse HRP antibody for detection. Colorimetric detection was performed with TMB, stopped with H2SO4 and read on a BioTek Synergy HT plate reader at 450 nm.
Due to the importance of anti-C1q antibodies in a subset of patients with SLE, immune complexes with human C1 and anti-C1q antibodies (goat) were generated. […]

IALILEPICCQERAA-dPEG24 (cysteine pairing not given here) [PA-dPEG24, 15-amino acid PEGylated peptide, 24 PEG moieties at the C-terminus]
reduction of C5a generation ([1]; 1 mM PA-dPEG24, vs heat-aggregated IgG with no inhibitor, P=0.002): 61%
PA-dPEG24 concentration giving statistically significant inhibition of effector (C5a, iC3b, SC5b-9) generation ([1]; heat-aggregated IgG in NHS, each assay, P<0.05 vs no inhibitor): ≥ 0.5 mM
MPO-mediated oxidation of TMB (MPO): inhibits MPO-mediated oxidation
C1-antiC1q generation of iC3b ([2]; 2 mM PA-dPEG24, P<0.02): inhibited by 2 mM PA-dPEG24 (P<0.02) to a level similar to NHS baseline
PA-dPEG24 concentration inhibiting C1-antiC1q generation of SC5b-9 ([2]; P<0.03): ≥ 0.13 mM
C1-antiC1q generation of C5a in NHS ([2]; at each concentration, P<0.03): dose-dependently inhibited
